In patent publication EP0381374A1, “Phosphodiesterase inhibitors” (LES LABORATOIRES BEECHAM S.A., priority 1989, dated 1990):

Columns and labels:
[1] = system: Canine cardiac myofibrillar Ca⁺⁺-dependent Mg⁺⁺ ATPase; experiment: Measurement of myofibrillar Ca++-dependent Mg++-ATPase activity; assay type: biochemical; details: Concentration: 3 x 10⁻⁵ molar; for Shift in pCa50 (ΔpCa50): shift of the pCa giving 50% of the maximal control ATPase activity, 21°C, pH 7.0; for Max ATPase activity(%): percent change of ATPase activity for pCa = 5.47
Protocol: 1. Measurement of myofibrillar Ca++-dependent Mg++-ATPase activity
The effect on Ca++sensitivity and on maximal activity of myofibrillar Ca++-dependent Mg++-ATPase was determined on canine cardiac myofibrils.
(a) Contractile protein preparation
Cardiac myofibrils free of membrane contaminants were prepared from left ventricular tissue of dog hearts using a modification of the method described by SOLARO et al, Biochem. Biophys. Acta, 245, 259-262, (1971). Before centrifugation, the heart homogenate was filtered through gauze.
After Triton X-100 treatments, the myofibrillar fraction was washed once by resuspension and centrifugation in 10 volumes of 1 mM EGTA, […] KCl, 30 mM imidazole, 2 mM MgCl₂, pH 7.0. The pellet was then washed three times in 10 volumes of the same buffer without EGTA. Before the last centrifugation, the suspension of myofibrils was filtered through a stainless steel sieve with 0.25 mm meshes.
Myofibrils were kept in pellet overnight. Before use, the pellet was suspended in a small amount of buffer, the protein concentration was determined by the method of BRADFORD M., Anal. Biochem., 1976, 72, 248 and adjusted in order to have a concentration between 6 and 7mg/ml, using gamma globuline as standard.
(b) Myofibrillar ATPase activity
Ca++-dependent myfibrillar ATPase activity was determined at 21 °C, pH 7.0, by measuring the rate of release of inorganic phosphate. All assays were performed within 24hrs. of final purification, using the method described by SOLARO and RUEGG, CIRC. RES., 51, 290-4,(1982). Reaction mixtures (4ml) containing 0.6 - 0.7 mg/ml myofibrillar protein, 80mM KCl, 20 mM imidazole, 3 mM MgCl₂, 1 mM EGTA, the desired amount of CaCl₂, and the indicated concentration of drug or appropriate vehicle were preincubated for 6 min. prior to assay. The amount of CaCl₂ was varied between 0 and 0.9 mM and the pca (-log free Ca++) computed using 2.514 x 10⁶ M⁻¹ as the apparent affinity of Ca++ for EGTA at pH 7.0.
Reactions were initiated by the addition of Na₂ATP to final concentration of 2 mM. After an incubation period of 12 min., reactions were quenched by the addition of an equal volume of ice-cold 10% trichloroacetic acid. The protein was pelleted by centrifugation (2000g, 15 min.) and Pi was assayed in the supernatant fraction using a modification of the method described by LANZETTA et al, Anal. Biochem., 100, 95-97, (1979).
The following solutions were prepared: • (1) 3.7% ammonium heptamolybdate in 0.12 N H₂SO₄ • (2) 0.074% malachite green oxalate in 1% polyvinylic alcohol.
The colour reagent was prepared by mixing an equal volume of solution (1) and (2) 15 min. before the assay. For the assay, 1700 µl of 1% H₂SO₄ and 1 ml of colour reagent were added to 100 µl of sample. Colour development occurred at room temperature for 30 min. and was quenched by the addition of 200 µl of 1 M tri-potassium citrate. The absorbance was measured at 620 millimicrons.
The effect of each compound, tested at the indicated concentration, on the relation between pCa and percent activation was determined taking 100% for the maximum ATPase activity obtained with vehicle alone. The effect on Ca++ sensitivity was quantified by measuring the shift of the pCa giving 50% of the maximal control ATPase activity.
The effect on maximal ATPase activity was expressed as the percent change of ATPase activity for pCa = 5.47.

[2] = biological target: T1, CGI-PDE (i.e., c-GMP-inhibited PDE) (Canis lupus familiaris, UniProt A0A8I3NYE0); experiment: Inhibition of cardiac phosphodiesterases, Fraction IV (CGI-PDE); assay type: biochemical; details: canine left ventricle PDE Fraction IV
T1 construct: isoforms of canine left ventricle were separated by column ion exchange chromatography; from tissue; host or cells: canine left ventricle, Fractogel TSK DEAE 650 fraction IV
T1 sequence (A0A8I3NYE0 1-1135): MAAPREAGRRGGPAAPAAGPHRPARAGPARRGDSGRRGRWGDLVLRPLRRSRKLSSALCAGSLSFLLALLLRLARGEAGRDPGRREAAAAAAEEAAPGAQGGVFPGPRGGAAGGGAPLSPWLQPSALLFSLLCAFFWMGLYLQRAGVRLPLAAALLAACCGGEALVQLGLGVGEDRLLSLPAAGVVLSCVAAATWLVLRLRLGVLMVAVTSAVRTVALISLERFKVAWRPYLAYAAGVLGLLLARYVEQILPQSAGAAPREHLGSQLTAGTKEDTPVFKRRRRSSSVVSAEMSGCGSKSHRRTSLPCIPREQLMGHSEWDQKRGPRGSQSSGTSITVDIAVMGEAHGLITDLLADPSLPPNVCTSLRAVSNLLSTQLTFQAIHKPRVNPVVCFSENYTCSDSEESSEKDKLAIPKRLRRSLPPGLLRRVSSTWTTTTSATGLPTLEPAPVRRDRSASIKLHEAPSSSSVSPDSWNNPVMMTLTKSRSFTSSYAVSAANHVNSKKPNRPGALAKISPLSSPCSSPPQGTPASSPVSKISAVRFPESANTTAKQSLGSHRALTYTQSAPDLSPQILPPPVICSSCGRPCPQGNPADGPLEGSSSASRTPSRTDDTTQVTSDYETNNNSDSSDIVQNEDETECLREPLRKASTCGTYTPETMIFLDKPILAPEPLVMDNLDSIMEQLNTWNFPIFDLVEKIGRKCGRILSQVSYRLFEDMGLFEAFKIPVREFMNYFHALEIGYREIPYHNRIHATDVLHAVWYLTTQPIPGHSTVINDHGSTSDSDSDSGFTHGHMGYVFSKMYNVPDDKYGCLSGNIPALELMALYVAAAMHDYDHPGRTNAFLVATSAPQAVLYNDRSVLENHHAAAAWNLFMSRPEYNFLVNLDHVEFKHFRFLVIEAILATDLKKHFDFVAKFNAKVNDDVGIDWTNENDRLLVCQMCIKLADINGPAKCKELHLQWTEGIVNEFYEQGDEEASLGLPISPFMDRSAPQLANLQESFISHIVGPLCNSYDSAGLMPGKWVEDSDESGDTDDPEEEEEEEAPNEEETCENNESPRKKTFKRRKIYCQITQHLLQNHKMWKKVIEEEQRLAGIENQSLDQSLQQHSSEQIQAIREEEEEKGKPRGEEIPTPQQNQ
Protocol: 2. Inhibition of Cardiac Phosphodiesterases
The phosphodiesterases (PDE) isoforms of canine left ventricle were separated by column ion exchange chromatography, using a minor modification of the method previously described by Alvarez et al. (Mol. Pharmacol., 1986, 29, 554-560). A Fractogel TSK DEAE 650 column was used and the PDEs were eluted using a continuous sodium acetate gradient (50 to 500 mM). The flow rate was 1.2ml/min and fractions of c.a. 8ml were collected as described by Weishaar et al. (Biochem. Pharmacol., 1986, 35, 787-800).
Four isoforms were identified • i) Fraction I or CAM-PDE (i.e. Ca⁺⁺/calmodulin-activated PDE), which hydrolyses both c-AMP and c-GMP, and presents a low Km for c-AMP over a wide range of concentration. It is activated by Ca⁺⁺/calmodulin. • ii) Fraction II or CGS-PDE (i.e. c-GMP-stimulated PDE), which hydrolyses more specifically c-GMP, and presents a high Km, for c-AMP over a wide range of concentration. It is stimulated by c-GMP. • iii) Fraction III or NCGI-PDE (i.e. not c-GMP-inhibited PDE), which hydrolyses more specifically c-AMP and presents two relatively low Km sites of affinity. It is not inhibited by c-GMP. iv) Fraction IV or CGI-PDE (i.e., c-GMP-inhibited PDE), which also hydrolyses more specifically c-AMP, and also presents two relatively low Km site of affinity. It is inhibited by c-GMP.
The inhibitory effect of the test compounds was expressed as the IC₅₀, i.e. the concentration which inhibits the activity by 50%, this value being expressed in micromoles.

O=C1NN=C(c2ccc3c(c2)C(C2CCCCC2)C(=O)N3)CS1 (stereo not drawn) [Example 12, 3-Cyclohexyl-1,3-dihydro-5-(3,6-dihydro-2-oxo-2H-1,3,4-thiadiazin-5-yl)-2H-indol-2-one]
Shift in pCa50 (ΔpCa50) [1]: 0.49

CC1SC(=O)NN=C1c1ccc2c(c1)C(C)(C)C(=O)N2Cc1ccccc1 (stereo not drawn) [Example 5, 1,3-Dihydro-5-(3,6-dihydro-6-methyl-2-oxo-2H-1,3,4-thiadiazin-5-yl)-3,3-dimethyl-1-(phenylmethyl)-2H-indol-2-one]
Shift in pCa50 (ΔpCa50) [1]: 0.38

CC1SC(=O)NN=C1c1ccc2c(c1)C1(CCCC1)C(=O)N2C(=O)c1ccc(N)cc1.Cl (stereo not drawn) [Example 1, 1′-[(4-Aminophenyl)carbonyl]-5′-(3,6-dihydro-6-methyl-2-oxo-2H-1,3,4-thiadiazin-5-yl)-spiro[cyclopentane-1,3′-[3H]-indol]-2′(1′H)-one, hydrochloride]
Max ATPase activity(%) [1]: -18% | Shift in pCa50 (ΔpCa50) [1]: 0.19 | IC50 [2]: 0.87 µM

O=C1NN=C(c2ccc3c(c2)C(Sc2ccccc2)C(=O)N3)CS1 (stereo not drawn) [Example 11, 1,3-Dihydro-5-(3,6-dihydro-2-oxo-2H-1,3,4-thiadiazin-5-yl)-3-phenylthio-2H-indol-2-one]
Shift in pCa50 (ΔpCa50) [1]: 0.21

1-Cyclohexylmethyl-5-(3,6-dihydro-6-methyl-2-oxo-2H-1,3,4-thiadiazin-5-yl)-1,3-dihydro-3,3-dimethyl-2H-indol-2-one [Example 9]
Max ATPase activity(%) [1]: +11% | Shift in pCa50 (ΔpCa50) [1]: 0.32

CC1SC(=O)NN=C1c1ccc2c(c1)C(C1CCCCC1)C(=O)N2 (stereo not drawn) [Example 10, 3-Cyclohexyl-1,3-dihydro-5-(3,6-dihydro-6-methyl-2-oxo-2H-1,3,4-thiadiazin-5-yl)-2H-indol-2-one]
Shift in pCa50 (ΔpCa50) [1]: 0.99

CC1SC(=O)NN=C1c1ccc2c(c1)C(C)(C)C(=O)N2C(=O)Nc1ccccc1 (stereo not drawn) [Example 2, 2,3-Dihydro-5-(3,6-dihydro-6-methyl-2-oxo-2H-1,3,4-thiadiazin-5-yl)-3,3-dimethyl-2-oxo-N-phenyl-1H-indole-1-carboxamide]
IC50 [2]: 15 µM

CC1SC(=O)NN=C1c1ccc2c(c1)C(c1ccccc1)C(=O)N2 (stereo not drawn) [Example 4, 1,3-Dihydro-5-(3,6-dihydro-6-methyl-2-oxo-2H-1,3,4-thiadiazin-5-yl)-3-phenyl-2H-indol-2-one]
Shift in pCa50 (ΔpCa50) [1]: 0.68 | IC50 [2]: 3.2 µM

CC1SC(=O)NN=C1c1ccc2c(c1)C(C)(C)C(=O)N2c1ccccc1 (stereo not drawn) [Example 7, 1,3-Dihydro-5-(3,6-dihydro-6-methyl-2-oxo-2H-1,3,4-thiadiazin-5-yl)-3,3-dimethyl-1-phenyl-2H-indol-2-one]
Shift in pCa50 (ΔpCa50) [1]: 0.20

CCOC(=O)CN1C(=O)C(C)(C)c2cc(C3=NNC(=O)SC3C)ccc21 (stereo not drawn) [Example 3, Ethyl 2,3-dihydro-5-(3,6-dihydro-6-methyl-2-oxo-2H-1,3,4-thiadiazin-5-yl)-3,3-dimethyl-2-oxo-N-1H-indole-1-acetate]
Shift in pCa50 (ΔpCa50) [1]: 0.23 | IC50 [2]: 6.7 µM
